Test results taken from patent US11434205B2, “Substituted imidazole carboxylate derivatives and the use thereof” (priority 2018, dated 2022).
Where two headings read alike, the source gives them in different places.

Experiments:
rats [1] = format: in vivo, rat; settings: rats of the MAP/HR figures, 2×ED50, tail vein
[2] = tested on: secretion of corticosterone, H295R cell line; test: cells; format: cell-based; settings: for EC50: read-out: EC50 (Corticosterone)
Protocol: (§1) The Effects of the Compounds on Adrenocortical Function In Vitro Test
(§2) Then secretion of the cortisol and corticosterone in the supernatant, was measured using HPLC-MS/MS method to determine whether the compounds of the present invention had adrenotoxic potential.

[3] = tested on: secretion of cortisol, H295R cell line; test: cells; format: cell-based; settings: for EC50: read-out: EC50 (Cortisol)
Protocol: as §1, §2

rats [4] = tested on: rats
Protocol: Pharmacological Effects of the Compounds on Continuous Infusion in Rats
Adult male Sprague-Dawley rats with body weight ranging from 250 to 300 gm were selected for continuous infusion test. […] Time to recovery of righting reflex from stopping infusion, and time to fully awake from stopping infusion were recorded.

rats [5] = format: in vivo, rat; settings: for recovery time of the test animals' righting reflex: rats of the MAP/HR figures, 2×ED50, tail vein, same value in min
How it was run: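 Hemodynamic stability judged from mean arterial pressure and heart rate, recorded at 15 s intervals over 30 min pre- and post-dose. Dosing was through a tail-vein indwelling catheter in rats carrying implanted aortic/ventricular catheters and ECG wires, operated ≥1 week earlier.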

rats [6] = test: Loss of righting reflexes (LORR) assay in rats, ED50 by up and down method; format: in vivo, rat; settings: Rattus norvegicus, tail vein
How it was run: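 ED50 obtained by up-and-down dosing, with righting-reflex loss over 30 s counted as general anesthesia. Compounds injected into the tail vein (0.1 mL/s) of male Sprague-Dawley rats weighing 250-300 g.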

rats [7] = tested on: rats; remark: listed apart in the source
Protocol: Adult male Sprague-Dawley rats (250-300 g) were selected for the experiment. […] The anesthesia effects of the compounds were assessed in rats using a LORR assay and a period >30 s was considered as an indicator of general anesthesia. Then the up and down method was used to determine 50% effective dose (ED50). The drugs were administered through the tail vein of rats in a volume of 0.6 mL and at a rate of 0.1 mL/s.

rats [8] = test: Pharmacological characteristics at equivalent doses (2×ED50) in rats; settings: 2×ED50, tail vein; for Adverse reactions: Red urine (incidence): DMSO solution (DMSO alone 10/10); for Onset time: time of LORR; for Adverse reactions: Tremor (incidence): animals affected/animals
How it was run: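 Anesthesia onset, recorded as time of LORR, was measured after a 2×ED50 tail-vein injection (0.6 mL, 0.1 mL/s). Animals were male Sprague-Dawley rats of 250-300 g, n=8.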

[9] = emulsion, continuous infusion at 2×MIR
[10] = H295R cell line, 0.1-10000 nM, HPLC-MS/MS, Table D3
[11] = continuous tail vein infusion at 2×MIR, LORR maintained 1 hour, Table E4
[12] = H295R cell line, 0.1-10000 nM, HPLC-MS/MS, Table E3
[13] = continuous tail vein infusion at 2×MIR, LORR maintained 1 hour, Table C4
[14] = continuous tail vein infusion at 2×MIR, LORR maintained 1 hour, Table D4

C[C@H](c1ccccc1)n1cncc1C(=O)OCC1CCC1 [Compound A8]
recovery time of the test animals' righting reflex (rats [1]): 129 s | Corticosterone as an indicator to determine the presence of inhibition ([2]; H295R, Table A3): 0 | EC50 ([2]; Homo sapiens, NCI-H295R): > 1000 nM | Cortisol as an indicator to determine the presence of inhibition ([3]; H295R, Table A3): 0 | EC50 ([3]; Homo sapiens, NCI-H295R): > 1000 nM | Recovery time after stopping infusion (rats [4]; after 1 hour infusion at 2×MIR): 9 to 14 min | Adverse reactions: Tremor (incidence) (rats [4]; continuous infusion 2×MIR): Tremor (1/6) | Onset time (rats [4]; [9]): 3 to 4 min | recovery time of the test animals' righting reflex (rats [5]): 2.15 min | ED50 (rats [6]; class symbols): 0.1 to 0.5 mg/kg | Approximate therapeutic index (rats [7]): >10 | Minimal lethal dose (rats [7]): >2 mg/kg | Righting reflex duration (rats [8]): 2.25 ± 2.64 min | Adverse reactions: Red urine (incidence) (rats [8]): Red urine (8/8) | Onset time (rats [8]): 0.34 ± 0.21 min

COCC1(COC(=O)c2cncn2[C@H](C)c2ccccc2)CCC1 [Compound A11]
recovery time of the test animals' righting reflex (rats [1]): 225 s | Corticosterone as an indicator to determine the presence of inhibition ([2]; H295R, Table A3): 0 | EC50 ([2]; Homo sapiens, NCI-H295R): > 10000 nM | Cortisol as an indicator to determine the presence of inhibition ([3]; H295R, Table A3): 0 | EC50 ([3]; Homo sapiens, NCI-H295R): > 10000 nM | Recovery time after stopping infusion (rats [4]; after 1 hour infusion at 2×MIR): 14 to 18 min | Adverse reactions: Tremor (incidence) (rats [4]; continuous infusion 2×MIR): Tremor (5/6) | Onset time (rats [4]; [9]): 3 to 4 min | recovery time of the test animals' righting reflex (rats [5]): 3.75 min | ED50 (rats [6]; class symbols): 0.01 to 0.1 mg/kg | Approximate therapeutic index (rats [7]): >12 | Minimal lethal dose (rats [7]): >1 mg/kg | Righting reflex duration (rats [8]): 3.81 ± 1.49 min | Adverse reactions: Red urine (incidence) (rats [8]): Red urine (8/8) | Onset time (rats [8]): 0.21 ± 0.10 min

CC(OC(=O)c1cncn1[C@H](C)c1ccccc1)C1CO1 (stereo partly shown) [Compound B20]
recovery time of the test animals' righting reflex (rats [1]): 161 s | Corticosterone as an indicator to determine the presence of inhibition ([2]; H295R, Table B3): 0 | EC50 ([2]; Homo sapiens, NCI-H295R): > 1000 nM | Cortisol as an indicator to determine the presence of inhibition ([3]; H295R, Table B3): 0 | EC50 ([3]; Homo sapiens, NCI-H295R): > 1000 nM | recovery time of the test animals' righting reflex (rats [5]): 2.68 min | ED50 (rats [6]; class symbols): 0.5 to 1 mg/kg | Approximate therapeutic index (rats [7]): >10 | Minimal lethal dose (rats [7]): >17 mg/kg | Righting reflex duration (rats [8]): 2.59 ± 0.99 min | Adverse reactions: Red urine (incidence) (rats [8]): Red urine (8/8) | Onset time (rats [8]): 0.28 ± 0.14 min

CC#CC1(OC(=O)c2cncn2[C@H](C)c2ccccc2)COC1 [Compound D39]
recovery time of the test animals' righting reflex (rats [1]): 375 s | Corticosterone as an indicator to determine the presence of inhibition [2, 10]: 0 | EC50 ([2]; Homo sapiens, NCI-H295R): > 1000 nM | Cortisol as an indicator to determine the presence of inhibition [3, 10]: 0 | EC50 ([3]; Homo sapiens, NCI-H295R): > 1000 nM | recovery time of the test animals' righting reflex (rats [5]): 6.25 min | ED50 (rats [6]; class symbols): 0.5 to 1 mg/kg | Approximate therapeutic index (rats [7]): >15 | Minimal lethal dose (rats [7]): >9 mg/kg | Adverse reactions: Hindlimb rigidity (incidence) (rats [8]): Hindlimb rigidity (1/8), | Adverse reactions: Myoclonus (incidence) (rats [8]): Myoclonus (1/8), Red | Righting reflex duration (rats [8]): 1.11 ± 0.34 min | Adverse reactions: Red urine (incidence) (rats [8]): urine (8/8) | Onset time (rats [8]): 0.20 ± 0.05 min

C[C@H](c1ccccc1)n1c(Cl)nc(Cl)c1C(=O)OC1CSC1 [Compound E133]
recovery time of the test animals' righting reflex (rats [1]): 138 s | Onset time (rats [4]; [11]): 3 to 4 min | Recovery time after stopping infusion (rats [4]; [11]): 9 to 12 min | Types and incidence of adverse reactions (rats [4]; [11]): Tremor (4/6) | recovery time of the test animals' righting reflex (rats [5]): 2.30 min | ED50 (rats [6]; class symbols): 0.5 to 1 mg/kg | Approximate therapeutic index (rats [7]): >12 | Minimal lethal dose (rats [7]): >10 mg/kg | Righting reflex duration (rats [8]): 2.10 ± 0.86 min | Adverse reactions: Red urine (incidence) (rats [8]): urine (8/8) | Adverse reactions: Tremor (incidence) (rats [8]): (4/8), Red | Onset time (rats [8]): 0.25 ± 0.10 min

C#CC1(OC(=O)c2c(Cl)nc(Cl)n2[C@H](C)c2ccccc2)COC1 [Compound E148]
recovery time of the test animals' righting reflex (rats [1]): 58 s | Onset time (rats [4]; [11]): 3 to 4 min | Recovery time after stopping infusion (rats [4]; [11]): 11 to 16 min | Types and incidence of adverse reactions (rats [4]; [11]): Myoclonus (2/6), Tremor (3/6) | recovery time of the test animals' righting reflex (rats [5]): 0.97 min | ED50 (rats [6]; class symbols): 0.5 to 1 mg/kg | Approximate therapeutic index (rats [7]): >12 | Minimal lethal dose (rats [7]): >10 mg/kg | Righting reflex duration (rats [8]): 0.49 ± 0.38 min | Adverse reactions: Red urine (incidence) (rats [8]): urine (8/8) | Adverse reactions: Tremor (incidence) (rats [8]): (5/8), Red | Onset time (rats [8]): 0.75 ± 0.24 min

CCOC(=O)c1cncn1[C@H](C)c1ccccc1 [Etomidate, ethyl R-(+)-1-(1-phenylethyl)-1H-imidazol-5-carboxylate, reference compound]
recovery time of the test animals' righting reflex (rats [1]): 440 s | Corticosterone as an indicator to determine the presence of inhibition [2, 10]: 2 | Corticosterone as an indicator to determine the presence of inhibition [2, 12]: 2 | Corticosterone as an indicator to determine the presence of inhibition ([2]; H295R, Table A3): 2 | Corticosterone as an indicator to determine the presence of inhibition ([2]; H295R, Table B3): 2 | Corticosterone as an indicator to determine the presence of inhibition ([2]; H295R, Table C3): 2 | EC50 ([2]; Homo sapiens, NCI-H295R): > 10 nM | EC50 [2, 10]: > 10 nM | EC50 [2, 12]: > 10 nM | Cortisol as an indicator to determine the presence of inhibition [3, 10]: 2 | Cortisol as an indicator to determine the presence of inhibition [3, 12]: 2 | Cortisol as an indicator to determine the presence of inhibition ([3]; H295R, Table A3): 2 | Cortisol as an indicator to determine the presence of inhibition ([3]; H295R, Table B3): 2 | Cortisol as an indicator to determine the presence of inhibition ([3]; H295R, Table C3): 2 | EC50 ([3]; Homo sapiens, NCI-H295R): > 1 nM | EC50 [3, 10]: > 1 nM | EC50 [3, 12]: > 1 nM | Recovery time after stopping infusion (rats [4]; after 1 hour infusion at 2×MIR): 25 to 30 min | Adverse reactions: Facial muscle twitching (incidence) (rats [4]; continuous infusion 2×MIR): twitching (4/6), Tongue stretching | Adverse reactions: Tongue stretching (incidence) (rats [4]; continuous infusion 2×MIR): (5/6) | Adverse reactions: Tremor (incidence) (rats [4]; continuous infusion 2×MIR): 6/6 | Onset time (rats [4]; [13]): 4 to 5 min | Recovery time after stopping infusion (rats [4]; [13]): 25 to 30 min | Onset time (rats [4]; [14]): 4 to 5 min | Recovery time after stopping infusion (rats [4]; [14]): 25 to 30 min | Onset time (rats [4]; [11]): 4 to 5 min | Recovery time after stopping infusion (rats [4]; [11]): 25 to 30 min | Onset time (rats [4]; [9]): 4 to 5 min | recovery time of the test animals' righting reflex (rats [5]): 7.33 min | effect on the circulatory function (MAP, HR) (rats [5]; rats, 2×ED50, 30 min after administration): almost no inhibitory effect on the circulatory function | ED50 (rats [6]; brackets = 95% confidence limit): 0.75 mg/kg | Minimal lethal dose (rats [7]): 12.75 mg/kg
